Laboratory results from US11173102B1, “Methods and compositions for removing color from color-treated hair” (L'Oreal, priority 2020, dated 2021).
Several values for one entry are separate records, joined by “and”; a condition that tells them apart may be missing. Equal values may be shown once.

Tests used:
[1] = Log Pow (octanol/water partition coefficient) of direct dyes; conditions: octanol/water partition coefficient of the dye
[2] = Color removal (ΔE) from HC blue 15 dyed, multiple-shampooed platinum bleached hair, with co-surfactants and cyclic compounds; conditions: 30 min 40° C.
[3] = Color removal (ΔE) from hair swatches dyed with HC Blue 15, soaked 30 minutes at 40° C., shampooed once
Procedure: Unless otherwise indicated, hair swatches were all treated using the same protocol. Specifically, 2 g dyed hair swatches were soaked in 80 g treatment solutions or samples in water for 30 minutes at 40° C., then the treated hair swatches were then shampooed once and blow-dried for evaluation.

[4] = Controlled color removal of two-tone colored hair over one, three and six shampoo washes; conditions: 10% TBuMA Cl added to commercial shampoo containing about 9% SLES, up to six washes
Description: The swatches were then washed with either the shampoo alone (control) or shampoo with TBuMA Cl and evaluated after one, three and six washes. Without addition of TBuMA Cl, the indigo color shifts to green as the number of shampoos increased. This is because Basic Red 51, a cationic direct dye, is washed out faster from hair by washing with shampoo than the HC Blue 15.

[5] = Color removal (ΔE) from hair swatches dyed with hydroxyanthraquinoneaminopropyl methyl morpholinium methosulfate, 23° C.; conditions: 6% SLES in water; 30 min 23° C.

Molecule	Log Pow [1]	other results
CCN(CC)c1ccc2c(-c3ccc(S(=O)(=O)[O-])cc3S(=O)(=O)[O-])c3ccc(=[N+](CC)CC)cc-3oc2c1.[Na+] [ACID RED 52]	1.3	
OCc1ccccc1 [Benzyl Alcohol, benzyl alcohol]		ΔE ([2]; 10% Benzyl Alcohol, hair pre-shampooed 6×): 9.4
Cc1ccc(Nc2ccc(O)c3c2C(=O)c2ccccc2C3=O)c(S(=O)(=O)[O-])c1.[Na+] [ACID VIOLET 43]	3.1	
COc1ccc([N+](=O)[O-])c(NCCN)c1.Cl [HC YELLOW NO.9]	1.3	
CC1=NN(c2ccccc2)C(=O)C1N=Nc1cccc([N+](C)(C)C)c1.[Cl-] (stereo not drawn) [BASIC YELLOW 57]	0.06	
Nc1ccc(NCCO)c([N+](=O)[O-])c1 [HC RED NO.3]	−0.42	
CN(N=Cc1cc[n+](C)cc1)c1ccccc1 [BASIC YELLOW 87]	−1.69	
O=[N+]([O-])c1cc(N(CCO)CCO)ccc1NCCCO [HC VIOLET NO 2]	0.608	
O=C([O-])c1c(Cl)c(Cl)c(Cl)c(Cl)c1-c1c2cc(Br)c(=O)c(Br)c-2oc2c(Br)c([O-])c(Br)cc12.[Na+].[Na+] [ACID RED 92]	3	
Cc1cc(N)c([N+](=O)[O-])cc1NCCO [HC VIOLET NO 1]	0.67	
C[N+](C)(C)c1cccc(N=C2C=C(N)c3c(O)c(Br)cc(N)c3C2=O)c1.[Cl-] [BASIC BLUE 99]	1.88	
O=S(=O)(O)c1cc(S(=O)(=O)O)c2c(/N=N\c3ccc(S(=O)(=O)O)c4ccccc34)c(O)ccc2c1 [ACID RED18]	1.63	
C[N+](C)(C)c1ccc2ccc(O)c(N=Nc3ccc(N)c([N+](=O)[O-])c3)c2c1.[Cl-] [BASIC BROWN 17]	−0.15	
Nc1c(N=Nc2ccc([N+](=O)[O-])cc2)c(S(=O)(=O)[O-])cc2cc(S(=O)(=O)[O-])c(N=Nc3ccccc3)c(O)c12.[Na+].[Na+] [ACID BLACK 1]	1.2	
CC1=CC(=C(c2cc(C)c(N)c(C)c2)c2c(Cl)cccc2Cl)C=C(C)C1=N.O=P(O)(O)O [HC BLUE NO. 15]	3.47	Log Pow ([1]; listed as HC Blue 15): around 3.47; Log Pow ([1]; listed as HC blue 15): around 3.47
CCCC[N+](C)(CCCC)CCCC.[Cl-] [TBuMA Cl, tributylmethyl ammonium chloride]		ΔE ([2]; 10% TBuMA Cl, hair pre-shampooed 4×): 3.63; ΔE ([3]; 10 wt.% organic salt, 0 wt. % SLES, 30 min 40° C.): 1.8; leaching of Basic Red 51 ([4]; versus shampoo alone): deterred or inhibited; removal of HC Blue 15 ([4]; versus shampoo alone): accelerated; indigo color tone during shampooing [4]: maintained
O=[N+]([O-])c1cc(O)ccc1NCCO [3-NITRO-P-HYDROXYETHYLAMINOPHENOL]	0.21	
Nc1ccc(O)cc1[N+](=O)[O-] [4-AMINO-3-NITROPHENOL]	1.19	

Molecule	Log Pow [1]	other results
Cc1cc(N(CCO)CCO)ccc1N=Nc1ccc(N)cc1 [HC YELLOW NO. 7]	2.59	
HC RED NO. 7	0.13	
Cn1cc[n+](C)c1N=Nc1ccc(N)cc1.[Cl-] [BASIC ORANGE 31]	−2.31	
NCCNc1ccc(OCCO)cc1[N+](=O)[O-] [HC ORANGE NO. 2]	0.13	
CCO [EtOH, ethanol]		ΔE ([2]; 16% EtOH, hair pre-shampooed 4×): 1.77; ΔE ([2]; 16% EtOH, hair pre-shampooed 6×): 1.8
CCN(Cc1cccc(S(=O)(=O)[O-])c1)c1ccc(C(=C2C=CC(=[N+](CC)Cc3cccc(S(=O)(=O)[O-])c3)C=C2)c2ccccc2S(=O)(=O)[O-])cc1.[Na+].[Na+] [ACID BLUE 9]	−0.32	
Cc1ccc(Nc2ccc(Nc3ccc(C)cc3S(=O)(=O)[O-])c3c2C(=O)c2ccccc2C3=O)c(S(=O)(=O)[O-])c1.[Na+].[Na+] [ACID GREEN 25]	5.71	
O=C1c2ccccc2C(=O)c2c(NCC(O)CO)ccc(NCC(O)CO)c21 (stereo not drawn) [HC BLUE NO. 14]	2.09	
ACID YELLOW 3	−1.05	
O=[N+]([O-])c1cc(N(CCO)CCO)ccc1NCCO [HC BLUE NO. 2]	−0.32	
CN(C)c1ccc(N=Nc2n(C)cc[n+]2C)cc1.[Cl-] [BASIC RED 51]	−1.97	Log Pow ([1]; listed as Basic Red 51): around −1.97
COS(=O)(=O)[O-].C[N+]1(CCCNc2ccc(O)c3c2C(=O)c2ccccc2C3=O)CCOCC1 [hydroxyanthraquinoneaminopropyl methyl morpholinium methosulfate]	0.89	Log Pow ([1]; listed as hydroxyanthraquinoneaminopropyl methyl morpholinium methosulfate): around 0.89
O=C([O-])C1=NN(c2ccc(S(=O)(=O)[O-])cc2)C(=O)C1N=Nc1ccc(S(=O)(=O)[O-])cc1.[Na+].[Na+].[Na+] (stereo not drawn) [ACID YELLOW 23]	−10.17	
O=S(=O)([O-])c1ccc(N=Nc2c(O)ccc3ccccc23)cc1.[Na+] [ACID ORANGE 7]	1.4	
Nc1ccc(N)c2c1C(=O)c1ccccc1C2=O [DISPERSE VIOLET 1]	3	
CNc1cc(OCC(O)CO)ccc1[N+](=O)[O-] (stereo not drawn) [2-NITRO-5-GLYCERYL METHYLANILINE]	0.89	
sodium laureth sulfate [SLES]		ΔE [5]: 18.2; ΔE ([2]; 6% SLES, hair pre-shampooed 4×): 19.3; ΔE ([2]; 6% SLES, hair pre-shampooed 6×): 15.01; ΔE ([3]; 0 wt.% organic salt, 3 wt. % SLES, 30 min 40° C.): 21.08 and 21.1; ΔE ([3]; 0 wt.% organic salt, 6 wt. % SLES, 30 min 40° C.): 21.81 and 21.4; ΔE ([3]; 0 wt.% organic salt, 12 wt. % SLES, 30 min 40° C.): 21.84; ΔE ([3]; SLES alone, over the concentrations tested (3-12 wt. %)): 21-22
Nc1cc(S(=O)(=O)[O-])cc2cc(S(=O)(=O)[O-])c(N=Nc3ccccc3)c(O)c12.[Na+].[Na+] [ACID RED 33]	0.5	
